Consider four compounds from patent US5306721A (priority 1990, dated 1994).

Molecules are shown by their SMILES. Structures can show the parent of a compound that is named as a salt. Where two headings read alike, the source gives them in different places.

For data set [1] the following is noted: levamisole after oral administration to man; inosine benzoate about 50 mg/kg/day; cited from earlier work.
The subject of data set [2] is immune system. Particulars: cited from earlier work.
The subject of data set [3] is effector T lymphocyte activity (contact hypersensitivity). Description: Percutaneous test for detecting delayed contact hypersensitivity (contact dermatitis) after DNFB immunization. Format: in vivo, guinea pig. Particulars: Cavia porcellus, 24 h, Control: 100, oral 2 mg/kg daily, day +1 to +6, read-out: Contact dermatitis, 24-hour reaction. The text has this:
1.1 Percutaneous test for detecting contact hypersensitivity
The epicutaneous application of dinitrofluorobenzene (DNFB) led to the development of a delayed hypersensitivity in guinea pigs and mice, an immune status, which is linked to the clonal reproduction of antitrinitrophenyl (TNP)-specific T lymphocytes (TDTH -ly). If, after a latency period of at least 5 days, there is a renewed application of DNFB, lymphokines are released through the reaction with the TDTH -ly of this region of the skin and thus lead to a locally limited inflammatory reaction.
Seven days after the immunization with 1% DNFB, the sides of the experimental animals were depilated and tested by the application of one drop each of the 0.5%, 0.1%, 0.05, 0.025% and 0.01% DNFB solution. […] The test results are obtained from the severity and number of the positive skin reactions, and the stimulation index (SI) is obtained from the comparison of test animals and control animals.
The test substance is orally administered. A daily dose of 2 mg/kg of body weight, as an aqueous suspension, was administered daily by a stomach tube. Duration of treatment: 1 day+1 (one day after the immunization), up to +6. The control animals received only the lactose content of the composition.
The degree of sensitization in percent and the concentration of serum antibodies expressed as antibody titer difference is compared below to the respective control group (screening values).
A contact dermatitis value of 120 or more, i.e. corresponding to an at least 20% increase compared to the control, or of less than 80 are taken as proof of a stimulatory or suppressor effect, respectively. Antibody values of >+1 or <-1 illustrate the stimulatory or suppressor effect, respectively, of the substances on the humoral response.

The subject of data set [4] is SE-specific rosette-forming cells (RFC). Briefly: Rosette test (SE-specific rosettes). The data set is classed as in vivo, mouse (inbred CBA strain). Particulars: oral administration. How it is done: The testing of immunostimulatory effects was also conducted on the mouse (inbred CBA strain) by detection through the plaque test for detecting SE (sheep erythrocyte) -specific immunoglobulin M (IgM) and immunoglobulin G (IgG) PFC (plaque forming cells), and by the rosette test.
2.2 Rosette Test (SE-specific rosettes)
According to Burnet's Theory, lymphocytes carry immunoglobulin receptors on their surface. These receptors are directed against a particular antigen and are detectable by a reaction with the specific antigen. The determination of the number of rosette-forming cells (RFC) can serve as a measure of the strength of an incipient immune reaction and consequently also reproduce the effects of a suppression or stimulation of cell-proliferative processes.
Three days after the intravenous immunization with 2×10^5 SE in 0.2 ml physiological salt solution, the experimental animals were killed by hyperdistention, the spleen was removed and, after addition of Parker medium at pH 7.4, rubbed through Muller gauze. The work to recover the cell suspension was carried out in an ice-cooled water bath from about 0° C. to about 4° C. The determination of the cell density was carried out in a Neubauer counting chamber. Next, the cell count was adjusted to 1×10^7 nuclei-containing cell (NCC) per ml of medium, a count that was kept constant for all experimental formulations. Of this spleen cell suspension (1×10^7 NCC/ml), 0.9 ml were then mixed with 0.1 ml of a 5% washed SE suspension and incubated for 24 hours at 4° C. An NCC, which was surrounded by at least 4 erythrocytes and was identifiable, was rated as a rosette.

Data set [5] relates to Vaccinia Lister. Description: microbe, parasite or virus in culture. Format: cell-based. The following applies: Orthopoxvirus vaccinia.
In data set [6] the test system is Herpes simplex type 1. Briefly: Grading replication test on RH cell line, herpes simplex type 1. The data set is classed as cell-based, herpes simplex virus. Particulars: Human alphaherpesvirus 1, RH cells.
Data set [7] relates to Influenza A/WSN. Briefly: Grading replication test on RH cell line, influenza. The following applies: RH cells. Format: cell-based, influenza virus.
Data set [8] concerns Vaccinia Lister. Briefly: microbe, parasite or virus in culture. The data set is classed as cell-based. Particulars: Orthopoxvirus vaccinia, Fibroblast, in Gallus gallus.
Data set [9] has as its system Influenza A/WSN. Briefly: Grading replication test on chicken embryo fibroblasts, influenza. Format: cell-based. The following applies: Influenza A virus, Fibroblast.
Where [10] appears, read: read-out: Inhibition of virus yield.
The mark [11] stands for this setting: read-out: Lowering the virus yield.
Setting [12] is: 62.5 μmoles/l, read-out: Inhibition of virus yield.
[13] abbreviates: 62.5 μmoles/l, read-out: Lowering the virus yield.
[14] abbreviates: 125 μmoles/l, read-out: Inhibition of virus yield.
Where [15] appears, read: 125 μmoles/l, read-out: Lowering the virus yield.
Where [16] appears, read: 250 μmoles/l, read-out: Inhibition of virus yield.
The mark [17] stands for this setting: 250 μmoles/l, read-out: Lowering the virus yield.

With `c1ccc([C@H]2CN3CCSC3=N2)cc1` [levamisole hydrochloride], the side effects entry in data set [1] is “vomiting, nausea, leucopenia, and agranulocytosis”. Moreover, in data set [2], the immunological effect entry is “predominantly immunorestorative effect”.

For `COc1cc2[nH]c(=O)n(CCCS)c(=O)c2cc1OC` [Example 2, 3-(3-mercapto-prop-1-yl)-6,7-dimethoxy-quinazoline-2,4(1H,3H)-dione], the response vs control in vivo at 2 mg/kg in [3] is 180%. The “production of SE-specific rosette-forming cells” value in [4] was “significant production of SE-specific rosette-forming cells”. For the same compound, the inhibition at 31.25 µM in [5] (setting [10]) amounted to 99.8%; in [6] (31.25 μmoles/l, read-out: Inhibition of virus yield), 100%; in [8] (setting [10]), 99.9%. Besides, the inhibition at 62.5 µM was greater than 100% in data set [5] (setting [10]), greater than 100% in data set [6] (setting [12]), 99.9% in [8] (setting [10]) and 99% in [9] (setting [12]). Moreover, the inhibition at 125 µM in data set [5] (setting [10]) is greater than 100%; in [6] (setting [14]), greater than 100%; in [7] (Influenza A virus, WSN, 125 μmoles/l, read-out: Inhibition of virus yield), 99%; in [8] (setting [10]), greater than 100%; in [9] (setting [14]), greater than 100%. In addition, the inhibition at 250 µM in data set [5] (setting [10]) is greater than 100%; in data set [6] (setting [16]) it was greater than 100%; in data set [7] (Influenza A virus, WSN, 250 μmoles/l, read-out: Inhibition of virus yield), 100%; in [8] (setting [10]), greater than 100%; in data set [9] (setting [16]), greater than 100%. For the same compound, the log reduction at 31.25 µM turned out to be 2.84 in data set [5] (setting [11]); 3.67 in [6] (31.25 μmoles/l, read-out: Lowering the virus yield); 0 in data set [7] (Influenza A virus, WSN, 31.25 μmoles/l, read-out: Lowering the virus yield); 3 in data set [8] (setting [11]). In addition, the log reduction at 62.5 µM was 5 in data set [5] (setting [11]); 5 in data set [6] (setting [13]); 0.5 in [7] (Influenza A virus, WSN, 62.5 μmoles/l, read-out: Lowering the virus yield); 3.5 in data set [8] (setting [11]); 2 in data set [9] (setting [13]). Also, the log reduction at 125 µM in data set [5] (setting [11]) is 5; in data set [6] (setting [15]) it was 6.5; in data set [7] (Influenza A virus, WSN, 125 μmoles/l, read-out: Lowering the virus yield), 2; in data set [8] (setting [11]), 5; in [9] (setting [15]), 5. Besides, the log reduction at 250 µM in [5] (setting [11]) worked out at 5; in data set [6] (setting [17]), 6.5; in [7] (Influenza A virus, WSN, 250 μmoles/l, read-out: Lowering the virus yield) it was 6.17; in data set [8] (setting [11]), 5; in data set [9] (setting [17]), 5. In addition, the “Inhibition of virus yield” value in data set [7] (62.5 μmoles/l, n.s. = not significant) was “n.s”.

For `O=C(OC[C@H]1O[C@@H](n2cnc3c(O)ncnc32)[C@H](O)[C@@H]1O)c1ccccc1` [inosine benzoate], the side effects entry in data set [1] is “vomiting, hyperuricemia and an increase in hematocrits”. Further, the immunological effect result in [2] is on record as “primarily an immunostimulating effect”.

On to `CC(C)(N1CC1C#N)N1CC1C(N)=O` (centres unmarked) [azimexone], for which, in data set [1], the side effects entry was “headaches, vomiting and a decrease in haemoglobin (Hb) and erythrocytes”.

For orientation: inhibition means the relative decrease from the control value, in per cent.
